Experimental data published in PMC5344956 (Cancer Chemotherapy and Pharmacology, 2017).

Legend:
[1] = Metabolite characterization by LC/MS/MS in human plasma, urine, and feces; conditions: for Matrix (in which the metabolite was found): human plasma, urine, feces, LC/MS/MS
Description: The remaining eluate stream of 0.16 mL/min from the HPLC runs was diverted to the inlet of the mass spectrometer. The samples were analyzed using a heated electrospray ionization probe. Full-scan positive ion MS data were collected using Finnigan Exactive (MS^1) or Q-Exactive (MS^1 and MS^2) mass spectrometers (Thermo Fisher Scientific Inc.) Exact conditions are described in the Online Resource 3.
Finnigan Exactive or Q-Exactive mass spectrometers (Thermo Fisher Scientific Inc., San Jose, CA) were used to collect full scan MS^1 and MS^2 data.

[2] = Metabolite profiling of plasma (HPLC-radiochromatography); assay type: in vivo, human; conditions: % of TRA
Description: For each subject, a 0–24 h pooled plasma sample was prepared according to the scheme outlined in the literature. In addition, several pooled plasma samples across all subjects were prepared at these time points: 5, 10, 12, […], and 48 h, and every 24 h thereafter until 240 h.
All pooled 0–24, 5, 10, 12, and 24 h plasma samples were processed as follows. […] The samples were vortexed for 30 min and centrifuged at 4500g at 4 °C for 6 min. The supernatants were transferred into new polypropylene tubes and kept on ice. The resulting plasma protein pellets were extracted twice to ensure good recovery and the extracts were combined. The combined extracts were loaded onto Ostro sample preparation plates (Waters Corporation, Milford, MA, USA), dried, eluted with 0.2 mL of cold acetonitrile, and all eluates were collected and evaporated under nitrogen (TurboVap LV; Caliper Life Sciences, Hopkinton, MA, USA). The dry residues were reconstituted in 0.1 mL of methanol, and a 0.005-mL aliquot was removed for determination of radioactivity. The remainder of the supernatants were transferred to high-performance liquid chromatography (HPLC) vials and stored at −80 °C until analysis.
Pooled post-24-h plasma samples were extracted using a slightly modified procedure. […] Appropriate volumes of formic acid were added to achieve a final concentration of 1%. Then, the samples were warmed to 37 °C and loaded to preconditioned Oasis HLB cartridges (Waters Corporation, Milford, MA, USA). These columns were then washed with water, dried under vacuum, and eluted with methanol. The eluates were collected and evaporated under nitrogen. The dry residues were reconstituted in 0.1 mL of methanol, and a 0.005-mL aliquot was removed for determination of radioactivity. The remainder of the supernatants were transferred to HPLC vials and stored at −80 °C until analysis.
(§1) A Finnigan Surveyor HPLC system (Thermo Fisher Scientific Inc., San Jose, CA, USA), consisting of an LC pump plus an autosampler and a UV–Vis plus detector, was used mostly for profiling (except the post-24-h plasma samples, which were analyzed using a Dionex HPLC system). A Phenomenex® Gemini® C18, 5-μm, 3.0 × 100-mm column (Phenomenex Inc., Torrance, CA, USA) was used along with a C-12 guard column (4 × 2 mm). LC conditions were as follows: solvent A was 10 mM ammonium bicarbonate in water (pH 10.0) and solvent B was 100% methanol and the flow rate was 0.8 mL/min. The following gradient was employed (B%): 0–5 min (20%), 32 min (42%), 33 min (60%), 55 min (70%), 56–60 min (95%), and 62–70 min (20%).
(§2) Reconstituted solvent extracts (0.050–0.10 mL) of plasma, urine, or feces were injected onto the HPLC column. The post-column eluate was split after UV detection into two streams (0.64 and 0.16 mL/min). The 0.64-mL stream was diverted to a fraction collector (Gilson FX 204; Gilson Medical Electronics, Middleton, WI, USA) to be collected in 96-well plates at 0.16 min/well (ScintiPlates; PerkinElmer Life Sciences, Shelton, CT, USA), and the 0.16-mL stream was directed to the mass spectrometer. The solvent in the 96-well plates was removed at 40 °C using a Genevac evaporator (Genevac, Inc., Stone Ridge, NY, USA).
(§3) The radioactivity counts per minute (CPM) in each well was determined using a MicroBeta scintillation counter (PerkinElmer Life and Analytical Sciences). The resulting CPM vs. time data were processed using Excel (Microsoft Corporation, Seattle, WA, USA). The CPM in each well was background-subtracted (using the average CPM values of the blank region of the HPLC run). Radiochromatographic profiles were obtained by plotting the resulting net CPM values against time after injection. Radioactive peaks in the chromatographic profiles were identified, and the radioactivity in each peak was summed and reported as a percentage of TRA in the HPLC run.

[3] = Metabolite profiling of feces (HPLC-radiochromatography); assay type: in vivo, human; conditions: 0–144 h pool
Description: One-gram samples of the fecal homogenates were transferred to 50-mL polypropylene tubes, extracted with 4 mL of methanol, and centrifuged (4500g). The resulting residues were extracted three more times (once with 2 mL of methanol and twice with 1 mL of methanol containing 1% formic acid) and centrifuged. All supernatants were combined and evaporated under nitrogen, and the residue was reconstituted with 0.5 mL of methanol, vortexed, sonicated, and centrifuged. A 0.010-mL aliquot of the supernatant was removed for determination of radioactivity, and the remainder of the supernatant was transferred to an HPLC vial and stored at −80 °C.
as §1, §2, §3

[4] = Plasma pharmacokinetics of TRA, ponatinib and metabolites after a single oral 45-mg [14C]ponatinib dose
Description: The subject release criterion was defined as follows: the combined urine and fecal radioactivity excretion for two consecutive days should fall below 1% of the dose administered.
Detailed procedures on sample collection, storage, and shipment are described in Online Resource 1. […] Fecal homogenates were prepared by adding water (four times the feces weight) and homogenizing.
(§4) TRA analysis was carried out at ABC Laboratories. The radioactivity in plasma (duplicate per time point) and urine samples (triplicate per time point) was quantitated by direct counting in a Beckman LS6000SC or LS6500 liquid scintillation counter (PerkinElmer Life and Analytical Sciences, Boston, MA, USA). Whole blood (duplicate per time point) and fecal homogenate (triplicate per time point) samples were oxidized, and the resultant ^14CO2 was trapped in Carbosorb (Calgon Carbon Corporation, Pittsburgh, PA, USA) in combination with Permafluor, followed by liquid scintillation counting to determine the radioactivity. Individual samples were counted for 5 min for whole blood and fecal matrices, and 10 min for plasma and urine matrices. Predose blood, plasma, urine, and feces samples served as respective control samples to determine and subtract the background radioactivity in the analysis.
M14 was quantitated using a different LC/MS/MS method (Online Resource 2). The pharmacokinetic analysis was carried out using WinNonlin® v6.4 (Pharsight Corp., Mountain View, CA, USA).
Aliquots of 30 µl of calibration standards, quality controls, and incurred plasma samples were transferred into a 96-well plate. Then 150 µl of ice-cold acetonitrile containing 50 ng/ml of AP30376 (d6-AP24600, internal standard) were added. The 96-well plate was vortexed for 10 min and then centrifuged at 4750 rpm for 20 min at 4°C. 100 µl aliquots of the supernatants were transferred into another 96-well plate and the samples were analyzed by liquid chromatography tandem mass spectrometry.

[5] = Excretion and mass balance in urine and feces; assay type: in vivo, human
From the text: Six healthy male volunteers, 25–45 years of age, with a mean body weight of 83.3 kg (range 64.5–94.4) and a mean body mass index of 26.9 kg/m^2 (range 20.2–29.9) participated in the study. […] The subject release criterion was defined as follows: the combined urine and fecal radioactivity excretion for two consecutive days should fall below 1% of the dose administered.
Detailed procedures on sample collection, storage, and shipment are described in Online Resource 1. […] Urine and feces collected from each subject were pooled at predose and every 24 h thereafter. Fecal homogenates were prepared by adding water (four times the feces weight) and homogenizing.
as §4
All urine voided was collected and stored in containers at 5±3 °C until the collection interval was completed. Subjects voided in the morning prior to study drug administration.
Multiple collections of urine during each collection interval from each individual subject were pooled. The urine samples from each collection interval were well mixed, accurately weighed, and assessed for its pH. A 100 ml sample from each collection interval from each subject was aliquoted into a separately labeled container to be sent to ABC Laboratories for radioactivity analysis. An approximately 10 ml sample from each collection interval from each subject on day 8 and each day thereafter was used for TRA analysis at Celerion (Lincoln, NE). All urine samples were kept frozen at −80 ± 15 °C.
Stool collections began approximately 24 h prior to drug administration until the end of the postdose sampling period. The 24 h predose samples were used as control samples for the radioactivity analysis and metabolite profiling. Feces were collected daily (24 h collection periods) until subjects were discharged from the clinical research unit.
All fecal samples were collected in polypropylene containers; toilet paper was collected separately. The weight of each sample was recorded. Multiple collections of feces during each collection interval from each individual subject were pooled. The feces samples were thoroughly homogenized with water (4X the weight of the feces). A 100 g sample was aliquoted into a separately labeled container to be sent to ABC Laboratories for radioactivity analysis. An approximately 10 g sample from each collection interval from each subject on day 8 and each day thereafter was used for TRA analysis at Celerion. All fecal homogenate samples were kept frozen at −80 ± 15 °C.

Row | SMILES | Matrix (in which the metabolite was found) [1] | % Distribution in plasma ([2]; 0–24 h pooled plasma) | % Distribution in plasma ([2]; 5 h pooled plasma) | % Distribution in plasma ([2]; 10 h pooled plasma) | % Distribution in plasma ([2]; 12 h pooled plasma) | % Distribution in plasma ([2]; 36 h pooled plasma) | % Distribution in plasma ([2]; 48 h pooled plasma) | % Distribution in plasma ([2]; 72 h pooled plasma) | % Distribution in plasma ([2]; 96 h pooled plasma) | also measured
1 | CN1CCN(Cc2ccc(N)cc2C(F)(F)F)CC1 [M19, 4-((4-methylpiperazin-1-yl)methyl)-3-(trifluoromethyl)aniline] |  |  |  |  |  |  |  |  |  | detection in human samples (plasma, urine, feces) ([1]; in vivo): not observed in any human samples; detection in human samples (plasma, urine, feces) ([1]; male, human, in vivo): The amide hydrolysis also would result in an aniline metabolite M19 (AP24592). However, this metabolite was not detected in any matrices.
2 | CC(=O)Nc1ccc(CN2CCN(C)CC2)c(C(F)(F)F)c1 [M22] | Trace: P, U, F |  |  |  |  |  |  |  |  | detection in human samples (plasma, urine, feces) ([1]; MS traces): trace levels
3 | Cc1ccc(C(=O)Nc2ccc(CN3CC[N+](C)([O-])CC3)c(C(F)(F)F)c2)cc1C#Cc1cnc2cccnn12 [M36, 4-(4-(3-(imidazo[1,2-b]pyridazin-3-ylethynyl)-4-methylbenzamido)-2-(trifluoromethyl)benzyl)-1-methylpiperazine 1-oxide] | P, U, F | ~0.5–1.0% | ~0.5% | ~0.5–1.0% | ~0.5–1.0% | – (“–” values less than 0.5% are not reported) | – (“–” values less than 0.5% are not reported) | – (“–” values less than 0.5% are not reported) | – (“–” values less than 0.5% are not reported) | 
4 | Cc1ccc(C(=O)Nc2ccc(CN3CCNCC3)c(C(F)(F)F)c2)cc1C#Cc1cnc2cccnn12 [M42, 3-(imidazo[1,2-b]pyridazin-3-ylethynyl)-4-methyl-N-(4-(piperazin-1-ylmethyl)-3-(trifluoromethyl)phenyl)benzamide] | P, U, F | ~0.5–1.0% | ~0.5–1.0% | ~0.5–1.0% | ~0.5–1.0% | – (“–” values less than 0.5% are not reported) | – (“–” values less than 0.5% are not reported) | – (“–” values less than 0.5% are not reported) | – (“–” values less than 0.5% are not reported) | % of total radioactive dose [3]: 8.3%; % Distribution in matrix ([3]; % of fecal TRA): 9.6%; plasma level at 144 h postdose ([4]; human plasma, 144 h postdose): at or below detectable limits; time postdose at which C max / maximal levels in plasma were observed ([4]; human plasma, single oral 45-mg dose, M23 by radiochromatography): 2 to 12 h; concentration at 144 h ([4]; male, human, plasma, oral, 45 mg): < 0.2 nM; AUC(0-inf) ([4]; male, human, plasma, po, 45 mg): 1.8 µM·h; AUC(0-t) ([4]; male, human, plasma, po, 45 mg): 1.61 µM·h; Cmax ([4]; male, human, plasma, po, 45 mg): 107 nM; Tmax ([4]; male, human, plasma, po, 45 mg): 2 h; half-life ([4]; male, human, plasma, po, 45 mg): 2.33 days
5 | Cc1ccc([14C](=O)Nc2ccc(CN3CCN(C)CC3)c(C(F)(F)F)c2)cc1C#Cc1cnc2cccnn12 [[^14C]ponatinib] |  |  |  |  |  |  |  |  |  | share of total urinary TRA contained in the 0–72-h pool ([5]; 0–72 h): 84%; cumulative recovery in feces during 0–144 h, share of the TRA in feces ([5]; 0–144 h): 91%; dose recovered in feces ([5]; 0–336 h (days 0–14) postdose): 86.6%; dose recovered in urine ([5]; 0–336 h (days 0–14) postdose): 5.4%; total radioactive dose recovered (urine and feces) ([5]; 0–336 h postdose): 92%
